Experimental findings from patent US6673813B2, “Methods for identifying and treating resistant tumors” (priority 1994, dated 2004) are described below.

Assay [1] concerns HL60/ADR cells. As to the kind of experiment: Cytotoxicity of oncolytics in doxorubicin-resistant HL60/Adr cells. To be noted: Homo sapiens. It counts as cell-based. An excerpt:
(§1) See Marquardt, D., McCrone, S., and Center M. S., Cancer Res., 50: 1426, (1990). The mechanism(s) utilized by P190 to confer resistance to Adriamycin is not well understood but may involve the intracellular redistribution of Adriamycin away from the nucleus. See Marquardt, D. and Center, M. S., supra. Adriamycin is an inhibitor of topoisomerase II (Beck, W. T., Bull. Cancer, 77: 1131, (1990), which is an enzyme involved in DNA replication. Redistribution of Adriamycin away from the nucleus would therefore be an important component in cellular resistance to this drug. The studies published to date on P190 have utilized cell lines selected in vitro for resistance to Adriamycin (McGrath, T., Latoud, C., Arnold, S. T., Safa, A. R., Felsted, R. S., and Center, M. S., supra; Marquardt, D. and Center, M. S., supra; and Marquardt, D., McCrone, S., and Center M. S. Cancer Res., supra. The association of MRP (P190) with drug resistance was made by sodium dodecyl sulfate polyacrylamide gel electrophoresis (SDS-PAGE) of radioactive extracts prepared from Adriamycin-resistant HL60/Adr human leukemia cells labeled with 8-azido-alpha[^32P]ATP. See McGrath, T., Latoud, C., Arnold, S. T., Safa, A. R., Felsted, R. S., and Center, M. S., supra. The drug-resistance phenotype conferred by P190 is not limited to the anthracyclines. Epipodophyllotoxin resistance is linked to P190 expression. […]

The test system of assay [2] is HL60/S cells. As to the kind of experiment: Cytotoxicity of oncolytics in sensitive HL60/S cells. The format is cell-based. To be noted: Homo sapiens, HL-60.
From the text: as §1

For assay [3], the target named is T1, MRP (Homo sapiens, UniProt P33527). Kind of assay: ATP-dependent transport into membrane vesicles of MRP-overexpressing HL60/ADR cells. It counts as biochemical. Also noted: HL60/ADR cells (human leukemia cells grown in adriamycin and overexpressing MRP); endogenous in cells; host or cells: HL60/ADR (Adriamycin-selected human HL60 leukemia cells), plasma membrane vesicles. The method, then: (§2) HL60/ADR cells (human leukemia cells grown in adriamycin and overexpressing MRP), revertant HL60 cells, and parental HL60 cells, respectively, were harvested by centrifugation after cultivation in cell culture and plasma membrane vesicles were prepared according to standard methods. Briefly, the cells were lysed by incubation in hypotonic buffer (0.5 mM sodium phosphate (pH 7.0), 0.1 mM EDTA supplemented with protease inhibitors) for 1.5 hours, followed by homogenization in a homogenizer. After centrifugation of the homogenate at 12,000×g(4° C., 10 minutes), the supernatant was centrifuged at 100,000×g at 4° C. for 45 minutes. […] After centrifugation at 280,000×g at 4° C. for 2 hours, the interphase was collected, washed by centrifugation in incubation buffer (100,000×g) and passed 20 times through a 27-gauge needle.
T1 sequence (P33527 whole entry): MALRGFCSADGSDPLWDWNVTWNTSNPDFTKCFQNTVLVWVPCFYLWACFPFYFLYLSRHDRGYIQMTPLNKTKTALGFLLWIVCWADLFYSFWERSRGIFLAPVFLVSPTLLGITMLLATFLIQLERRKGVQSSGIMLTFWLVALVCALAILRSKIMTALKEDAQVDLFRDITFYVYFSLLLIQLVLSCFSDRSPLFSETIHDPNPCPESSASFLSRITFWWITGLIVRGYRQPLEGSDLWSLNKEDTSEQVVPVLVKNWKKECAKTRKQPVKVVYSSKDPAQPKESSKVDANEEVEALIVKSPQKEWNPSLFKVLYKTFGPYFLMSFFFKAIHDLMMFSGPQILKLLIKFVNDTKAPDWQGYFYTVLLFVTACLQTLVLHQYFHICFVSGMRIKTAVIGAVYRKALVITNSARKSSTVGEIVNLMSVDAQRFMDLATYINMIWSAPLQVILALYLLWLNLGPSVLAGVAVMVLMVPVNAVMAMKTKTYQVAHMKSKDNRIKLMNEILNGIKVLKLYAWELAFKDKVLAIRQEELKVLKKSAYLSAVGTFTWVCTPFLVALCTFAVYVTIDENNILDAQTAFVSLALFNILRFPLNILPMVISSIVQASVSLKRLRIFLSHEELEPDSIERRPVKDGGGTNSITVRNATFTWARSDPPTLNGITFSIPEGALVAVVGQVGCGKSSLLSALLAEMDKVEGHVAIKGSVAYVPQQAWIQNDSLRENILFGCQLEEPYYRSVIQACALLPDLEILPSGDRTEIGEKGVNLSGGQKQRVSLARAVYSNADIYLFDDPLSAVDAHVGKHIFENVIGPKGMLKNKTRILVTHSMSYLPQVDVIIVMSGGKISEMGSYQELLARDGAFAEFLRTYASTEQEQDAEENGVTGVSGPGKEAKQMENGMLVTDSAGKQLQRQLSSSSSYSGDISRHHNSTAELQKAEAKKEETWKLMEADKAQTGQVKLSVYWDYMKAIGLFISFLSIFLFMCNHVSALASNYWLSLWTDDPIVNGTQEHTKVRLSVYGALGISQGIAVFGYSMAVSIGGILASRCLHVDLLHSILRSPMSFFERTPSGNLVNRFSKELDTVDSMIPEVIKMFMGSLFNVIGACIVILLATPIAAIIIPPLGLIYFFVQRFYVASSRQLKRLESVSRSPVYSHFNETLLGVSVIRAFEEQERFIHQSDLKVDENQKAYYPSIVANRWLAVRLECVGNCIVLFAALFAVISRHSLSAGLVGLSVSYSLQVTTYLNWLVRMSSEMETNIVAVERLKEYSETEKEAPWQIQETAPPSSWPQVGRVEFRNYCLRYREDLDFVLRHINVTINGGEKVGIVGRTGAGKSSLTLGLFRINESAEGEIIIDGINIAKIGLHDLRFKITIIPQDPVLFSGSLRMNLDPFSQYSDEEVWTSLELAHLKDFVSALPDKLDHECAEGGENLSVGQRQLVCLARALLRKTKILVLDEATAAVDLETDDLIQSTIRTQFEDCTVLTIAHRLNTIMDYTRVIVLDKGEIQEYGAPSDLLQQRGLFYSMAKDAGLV
Membrane vesicles (50 μg of protein) were incubated in the presence of 4 mM ATP, 10 mM MgCl2, 10 mM of creatine phosphate, and the labeled substrate in an incubation buffer containing 250 mM sucrose and 10 mM Tris-HCl, pH 7.4. The final volume was 110 μl. Aliquots of 20 μl were taken at predetermined times and diluted in 1 ml of ice-cold incubation buffer. The dilute samples were filtered immediately through a nitrocellulose membrane (0.2 μm pore size), presoaked in incubation buffer using a rapid filtration device and rinsed twice with 5 ml incubation buffer. The filters were immersed in liquid and measured in a liquid scintillation counter. ATP was replaced by an equal concentration of 5′-AMP in a control experiment. All rates of the ATP-dependent transport were obtained by subtracting the values obtained in the presence of 5′-AMP from those measured in the presence of ATP.

Assay [4] has as its target T1, MRP. Kind of assay: ATP-dependent transport of [3H]etoposide glucuronide / [3H]etoposide into membrane vesicles from MRP-overexpressing cells. To be noted: direct transport measurement in membrane vesicles.
From the text: FIG. 5, Panel A illustrates the ATP-dependent transport of [^3H]etoposide glucuronide into membrane vesicles from MRP-overexpressing cells. Panel B provides a comparison of MRP-mediated ATP-dependent transport of [^3H]etoposide glucuronide and [^3H]etoposide into membrane vesicles from MRP-overexpressing cells.
Assay [5] relates to membrane vesicles of parental and revertant HL60 cells. As to the kind of experiment: ATP-dependent transport into membrane vesicles of parental and revertant HL60 cells (low MRP expression). It counts as biochemical, human. To be noted: substrate 5 μM. The method, then:
as §2
Membrane vesicles (50 μg of protein) were incubated in the presence of 4 mM ATP, 10 mM MgCl2, 10 mM of creatine phosphate, and the labeled substrate in an incubation buffer containing 250 mM sucrose and 10 mM Tris-HCl, pH 7.4. The final volume was 110 μl. […] The filters were immersed in liquid and measured in a liquid scintillation counter. […] All rates of the ATP-dependent transport were obtained by subtracting the values obtained in the presence of 5′-AMP from those measured in the presence of ATP.

The structures appear in SMILES notation. ≈ marks a conversion by molar mass, not a printed value. Where two headings read alike, the source gives them in different places.

Regarding `COc1cccc2c1C(=O)c1c(O)c3c(c(O)c1C2=O)C[C@@](O)(C(=O)CO)C[C@@H]3O[C@H]1C[C@H](N)[C@H](O)[C@H](C)O1` [Adriamycin, Doxorubicin], the IC50 in assay [1] (HL60/ADR) is 2.2 µg/mL (≈ 4.05 µM); in assay [2], 0.011 µg/mL (≈ 0.0202 µM). For `CCCCC/C=C\C\C=C/C=C/C=C/[C@@H](Sc1ccc(C(=O)O)cc1)[C@@H](O)CCCC(=O)O` [BAY u9773], the “type of inhibition of ATP-dependent LTC4 transport” value in assay [3] (double-reciprocal (Lineweaver and Burk) plot) is reported as “competitive inhibition”. Further, the Ki in assay [3] (inhibition of ATP-dependent transport of LTC4, vesicles of MRP-overexpressing cells, 37° C., 2 minutes, read-out: inhibition constant (Ki)) is 700 nM. With `COc1cc([C@@H]2c3cc4c(cc3[C@@H](O[C@@H]3O[C@@H]5CO[C@@H](C)O[C@H]5[C@H](O)[C@H]3O)[C@H]3COC(=O)[C@H]23)OCO4)cc(OC)c1O` [Etoposide], the “substrate for MRP” value in assay [4] is on record as “not a substrate for MRP”. Also, the IC50 in assay [1] (HL60/Adr cells (express P190), read-out: IC50) was more than 10 µg/mL; in assay [2], 0.39 µg/mL (≈ 0.663 µM). Take `CCCCC/C=C\C\C=C/C=C/C=C/[C@@H](SC[C@H](N)C(=O)NCC(=O)O)[C@@H](O)CCCC(=O)O` [LTD4]: in assay [3], the “substrate for the MRP protein” value was “substrates”. Turning to `CCCCC/C=C\C\C=C/C=C/C=C/[C@@H](SC[C@H](N)C(=O)O)[C@@H](O)CCCC(=O)O` [LTE4], the “substrate for the MRP protein” value in assay [3] is recorded as “substrates”. Regarding `N[C@@H](CCC(=O)N[C@@H](CSc1ccc([N+](=O)[O-])cc1[N+](=O)[O-])C(=O)NCC(=O)O)C(=O)O` [S-(2,4-dinitrophenyl-[^3H]glutathione, S-(2,4-dinitrophenyl)-[^3H]glutathione], the “transport rate compared with HL60/ADR membranes” value in assay [5] is 10 times less. Besides, in assay [3] (substrate 5 μM, HL60/ADR membranes), the “rate of ATP-dependent transport” value is reported as 50+4 pmol×mg protein^−1×min^−1. As for `COc1cc([C@@H]2c3cc4c(cc3[C@@H](O[C@@H]3O[C@@H]5CO[C@@H](C)O[C@H]5[C@H](O)[C@H]3O)[C@H]3COC(=O)[C@H]23)OCO4)cc(OC)c1O[C@@H]1O[C@H](C(=O)O)[C@@H](O)[C@H](O)[C@H]1O` [etoposide glucuronide], the “substrate for MRP” value in assay [4] is listed as “mediated by MRP”.
